Assay results from patent publication US20240368135A1 (VERTEX PHARMACEUTICALS INCORPORATED, priority 2021, published 2024).
Read-outs that look alike come from different tables or passages of the source.

Molecular target: human NaV 1.8 (Homo sapiens, UniProt Q9Y5Y9)
Assay: E-VIPR assay detecting and measuring NaV inhibition properties
Type: cell-based
Conditions: HEK cells expressing truncated human NaV 1.8
Outline: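 HEK cells expressing truncated, fully active human NaV1.8, with KIR2.1 BacMam co-transduction, were loaded with CC2-DMPE/DiSBAC6(3) voltage-sensing dyes for 20 min at room temperature. Compounds were tested in 11-point 3-fold dilutions (300 nM top final), optionally with 25% human serum, under electrical stimulation with FRET read-out.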

[1] = no human serum, read-out: IC50 in the E-VIPR Assay
[2] = in the presence of human serum (compound numbers followed by *), read-out: IC50 in the E-VIPR Assay, performed in the presence of human serum

Chain of human NaV 1.8 (Q9Y5Y9 126-399 limits assumed): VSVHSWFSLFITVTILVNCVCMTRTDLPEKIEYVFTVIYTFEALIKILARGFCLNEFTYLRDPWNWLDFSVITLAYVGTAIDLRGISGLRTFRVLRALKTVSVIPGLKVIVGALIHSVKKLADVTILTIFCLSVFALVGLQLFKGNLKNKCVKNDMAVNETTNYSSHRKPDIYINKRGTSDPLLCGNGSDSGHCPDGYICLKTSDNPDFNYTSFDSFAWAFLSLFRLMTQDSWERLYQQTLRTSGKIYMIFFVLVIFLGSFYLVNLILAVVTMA
Chain of human NaV 1.8 (Q9Y5Y9 660-890 limits assumed): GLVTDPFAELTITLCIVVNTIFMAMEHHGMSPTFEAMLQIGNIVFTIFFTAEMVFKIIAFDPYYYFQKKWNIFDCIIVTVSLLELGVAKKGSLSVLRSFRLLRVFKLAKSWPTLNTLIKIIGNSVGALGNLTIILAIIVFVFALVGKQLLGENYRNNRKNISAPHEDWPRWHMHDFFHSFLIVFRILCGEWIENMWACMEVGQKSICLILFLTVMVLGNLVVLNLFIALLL
Chain of human NaV 1.8 (Q9Y5Y9 1148-1722 limits assumed): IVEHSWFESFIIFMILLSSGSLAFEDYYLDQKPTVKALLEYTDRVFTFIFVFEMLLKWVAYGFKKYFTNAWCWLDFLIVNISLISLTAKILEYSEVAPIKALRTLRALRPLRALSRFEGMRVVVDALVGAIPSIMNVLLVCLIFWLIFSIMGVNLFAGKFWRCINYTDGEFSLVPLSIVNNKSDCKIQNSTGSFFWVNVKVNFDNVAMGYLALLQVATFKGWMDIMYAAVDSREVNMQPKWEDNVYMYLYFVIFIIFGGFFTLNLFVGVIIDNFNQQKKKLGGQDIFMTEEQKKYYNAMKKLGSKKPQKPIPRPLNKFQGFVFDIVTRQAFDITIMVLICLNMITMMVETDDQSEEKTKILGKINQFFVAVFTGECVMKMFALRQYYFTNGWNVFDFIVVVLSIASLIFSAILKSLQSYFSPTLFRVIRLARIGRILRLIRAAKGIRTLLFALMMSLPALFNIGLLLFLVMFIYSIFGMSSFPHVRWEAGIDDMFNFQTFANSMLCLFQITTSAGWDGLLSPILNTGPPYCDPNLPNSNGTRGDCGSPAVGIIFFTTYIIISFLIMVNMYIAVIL

Structure (SMILES)	IC50 [1]	IC50 [2]
COc1c([C@H]2[C@H](C(=O)Nc3ccnc(C(C)(O)CF)c3)O[C@@](C)(C(F)(F)F)[C@H]2C)ccc(F)c1F (single isomer, unassigned) [Compound 226, rel-(2R*,3S*,4S*,5R*)-3-(3,4-difluoro-2-methoxyphenyl)-N-(2-(1-fluoro-2-hydroxypropan-2-yl)pyridin-4-yl)-4,5-dimethyl-5-(trifluoromethyl)tetrahydrofuran-2-carboxamide]	< 10 nM	
C[C@H]1[C@@H](c2ccc(F)c(F)c2)[C@H](C(=O)Nc2ccnc(S(C)(=O)=O)c2)O[C@@]1(C)C(F)(F)F (stereo in doubt) [Compound 155, rel-(2R,3S,4S,5R)-3-(3,4-difluorophenyl)-4,5-dimethyl-N-(2-(methylsulfonyl)pyridin-4-yl)-5-(trifluoromethyl)tetrahydrofuran-2-carboxamide]	10 to 100 nM	
COc1c([C@H]2[C@H](C(=O)Nc3cc(C)nn3CCC#N)O[C@@](C)(C(F)(F)F)[C@H]2C)ccc(F)c1F [Compound 292, (2R,3S,4S,5R)-N-(1-(2-cyanoethyl)-3-methyl-1H-pyrazol-5-yl)-3-(3,4-difluoro-2-methoxyphenyl)-4,5-dimethyl-5-(trifluoromethyl)tetrahydrofuran-2-carboxamide]	≥ 1000 nM	
COc1c([C@H]2[C@H](C(=O)Nc3cncn3C)O[C@@](C)(C(F)(F)F)[C@H]2C)ccc(F)c1F [Compound 313, (2R,3S,4S,5R)-3-(3,4-difluoro-2-methoxyphenyl)-4,5-dimethyl-N-(1-methyl-1H-imidazol-5-yl)-5-(trifluoromethyl)-tetrahydrofuran-2-carboxamide]	10 to 100 nM	
COc1c([C@H]2[C@H](C(=O)Nc3ccnc(CN[C@@H]4CCOC4)c3)O[C@@](C)(C(F)(F)F)[C@H]2C)ccc(F)c1F [Compound 23]	< 10 nM	
C[C@H]1[C@@H](c2ccc(F)c(F)c2OCCO)[C@H](C(=O)Nc2ncn(C3CCOC3)n2)O[C@@]1(C)C(F)(F)F (stereo partly drawn) [Compound 561, (2R,3S,4S,5R)-3-(3,4-difluoro-2-(2-hydroxyethoxy)phenyl)-4,5-dimethyl-N-(1-(tetrahydrofuran-3-yl)-1H-1,2,4-triazol-3-yl)-5-(trifluoromethyl)tetrahydrofuran-2-carboxamide]	≥ 1000 nM	
COC[C@@H](O)Cn1cc(NC(=O)[C@@H]2O[C@@](C)(C(F)(F)F)[C@@H](C)[C@H]2c2ccc(F)c(F)c2OC)c(C)n1 [Compound 245, (2R,3S,4S,5R)-3-(3,4-difluoro-2-methoxyphenyl)-N-(1-((S)-2-hydroxy-3-methoxypropyl)-3-methyl-1H-pyrazol-4-yl)-4,5-dimethyl-5-(trifluoromethyl)tetrahydrofuran-2-carboxamide]	10 to 100 nM	
CN=S(C)(=O)c1cc(NC(=O)[C@H]2O[C@](C)(C(F)(F)F)[C@H](C)[C@@H]2c2ccc(F)c(F)c2OC)ccn1 (relative stereo) [Compound 527, rel-(2S,3R,4R,5S)-3-(3,4-difluoro-2-methoxyphenyl)-N-(2-(N,S-dimethylsulfonimidoyl)pyridin-4-yl)-4,5-dimethyl-5-(trifluoromethyl)tetrahydrofuran-2-carboxamide]	100 to 1000 nM	
C[C@@H]1CN(C)CC(=O)N1c1cc(NC(=O)[C@@H]2O[C@@](C)(C(F)(F)F)[C@@H](C)[C@H]2c2ccc(F)c(F)c2OCCO)ccn1 [Compound 653, (2R,3S,4S,5R)-3-(3,4-difluoro-2-(2-hydroxyethoxy)phenyl)-N-(2-((R)-2,4-dimethyl-6-oxopiperazin-1-yl)pyridin-4-yl)-4,5-dimethyl-5-(trifluoromethyl)tetrahydrofuran-2-carboxamide]	10 to 100 nM	
COCC(O)c1cc(NC(=O)[C@@H]2O[C@@](C)(C(F)(F)F)[C@@H](C)[C@H]2c2ccc(F)c(F)c2OCCN2CCOCC2)ccn1 (single isomer, unassigned) [Compound 595]	10 to 100 nM	
CCOc1c([C@@H]2[C@@H](C(=O)Nc3ccn4nnnc4c3)O[C@](C)(C(F)(F)F)[C@@H]2C)ccc(F)c1C (stereo in doubt) [Compound 122, rel-(2S,3R,4R,5S)-3-(2-ethoxy-4-fluoro-3-methylphenyl)-4,5-dimethyl-N-(tetrazolo[1,5-a]pyridin-7-yl)-5-(trifluoromethyl)tetrahydrofuran-2-carboxamide]	100 to 1000 nM	
COc1c([C@H]2[C@H](C(=O)Nc3ccnc(CN(C)C)c3)O[C@@](C)(C(F)(F)F)[C@H]2C)ccc(F)c1F [Compound 183, (2R,3S,4S,5R)-3-(3,4-difluoro-2-methoxyphenyl)-N-(2-((dimethylamino)methyl)pyridin-4-yl)-4,5-dimethyl-5-(trifluoromethyl)tetrahydrofuran-2-carboxamide]	< 10 nM	
CCOc1c([C@H]2C[C@@](C)(C(F)(F)F)O[C@@H]2C(=O)Nc2ccnc(C(O)CO)c2)ccc(F)c1F (single isomer, unassigned) [Compound 709]		≥ 1000 nM
COc1c(C2C(C(=O)Nc3ccnc(S(C)(=N)=O)c3)OC(C)(C(F)(F)F)C2C)ccc(F)c1F (single isomer, unassigned) [Compound 53, 3-(3,4-difluoro-2-methoxy-phenyl)-4,5-dimethyl-N-[2-(methylsulfonimidoyl)-4-pyridyl]-5-(trifluoromethyl)tetrahydrofuran-2-carboxamide]	100 to 1000 nM	
Cc1nn(C(F)F)cc1NC(=O)[C@@H]1O[C@@](C)(C(F)(F)F)[C@@H](C)[C@H]1c1ccc(F)c(F)c1OCCN1CC2(COC2)C1 [Compound 598, (2R,3S,4S,5R)-3-(2-(2-(2-oxa-6-azaspiro[3.3]heptan-6-yl)ethoxy)-3,4-difluorophenyl)-N-(1-(difluoromethyl)-3-methyl-1H-pyrazol-4-yl)-4,5-dimethyl-5-(trifluoromethyl)tetrahydrofuran-2-carboxamide]	10 to 100 nM	
COCC(N)c1cc(NC(=O)[C@@H]2O[C@@](C)(C(F)(F)F)[C@@H](C)[C@H]2c2ccc(F)c(F)c2OC)c(F)cn1 (single isomer, unassigned) [Compound 423, rel-(2R*,3S*,4S*,5R*)-N-(2-(1-amino-2-methoxyethyl)-5-fluoropyridin-4-yl)-3-(3,4-difluoro-2-methoxyphenyl)-4,5-dimethyl-5-(trifluoromethyl)-tetrahydrofuran-2-carboxamide]	< 10 nM	
COc1c([C@H]2[C@H](C(=O)Nc3ccnc(N4CCN[C@@H](C)C4=O)c3)O[C@@](C)(C(F)(F)F)[C@H]2C)ccc(F)c1F [Compound 485, (2R,3S,4S,5R)-3-(3,4-difluoro-2-methoxyphenyl)-4,5-dimethyl-N-(2-((S)-3-methyl-2-oxopiperazin-1-yl)pyridin-4-yl)-5-(trifluoromethyl)tetrahydrofuran-2-carboxamide]	< 10 nM	
COc1cc(F)ccc1[C@@H]1C[C@](C)(C(F)(F)F)O[C@H]1C(=O)Nc1ccnc(S(C)(=O)=O)c1 (stereo in doubt) [Compound 714, rel-(2R,3S,5R)-3-(4-fluoro-2-methoxyphenyl)-5-methyl-N-(2-(methylsulfonyl)pyridin-4-yl)-5-(trifluoromethyl)tetrahydrofuran-2-carboxamide]		100 to 1000 nM
COc1c([C@H]2[C@H](C(=O)Nc3ccnc(N4C(=O)CN5CCC4CC5)c3)O[C@@](C)(C(F)(F)F)[C@H]2C)ccc(F)c1F [Compound 468, (2R,3S,4S,5R)-3-(3,4-difluoro-2-methoxyphenyl)-4,5-dimethyl-N-(2-(3-oxo-1,4-diazabicyclo[3.2.2]nonan-4-yl)pyridin-4-yl)-5-(trifluoromethyl)tetrahydrofuran-2-carboxamide]	10 to 100 nM	
COc1c([C@H]2[C@H](C(=O)Nc3ccnc(C(O)CF)c3)O[C@@](C)(C(F)(F)F)[C@H]2C)ccc(F)c1F (single isomer, unassigned) [Compound 253, rel-(2R*,3S*,4S*,5R*)-3-(3,4-difluoro-2-methoxyphenyl)-N-(2-(2-fluoro-1-hydroxyethyl)pyridin-4-yl)-4,5-dimethyl-5-(trifluoromethyl)tetrahydrofuran-2-carboxamide]	< 10 nM	
COc1c([C@H]2[C@H](C(=O)NC(C)c3ccn[nH]3)O[C@@](C)(C(F)(F)F)[C@H]2C)ccc(F)c1F (stereo partly drawn) [Compound 275, (2R,3S,4S,5R)-N-(1-(1H-pyrazol-5-yl)ethyl)-3-(3,4-difluoro-2-methoxyphenyl)-4,5-dimethyl-5-(trifluoromethyl)tetrahydrofuran-2-carboxamide]	≥ 1000 nM	
COCCOc1c([C@H]2[C@H](C(=O)Nc3ccnc(N4CCN(C)CC4=O)c3)O[C@@](C)(C(F)(F)F)[C@H]2C)ccc(F)c1F [Compound 585, (2R,3S,4S,5R)-3-(3,4-difluoro-2-(2-methoxyethoxy)phenyl)-4,5-dimethyl-N-(2-(4-methyl-2-oxopiperazin-1-yl)pyridin-4-yl)-5-(trifluoromethyl)tetrahydrofuran-2-carboxamide]	10 to 100 nM	
CC1C(c2ccc(F)c(F)c2OC2CC(O)C2)C(C(=O)Nc2cc(CO)ncc2F)OC1(C)C(F)(F)F [Compound 657, (2R,3S,4S,5R)-3-(3,4-difluoro-2-((1S,3R)-3-hydroxycyclobutoxy)phenyl)-N-(5-fluoro-2-(hydroxymethyl)pyridin-4-yl)-4,5-dimethyl-5-(trifluoromethyl)tetrahydrofuran-2-carboxamide]	≥ 1000 nM	
COCCOc1cc(NC(=O)[C@@H]2O[C@@](C)(C(F)(F)F)[C@@H](C)[C@H]2c2ccc(F)c(F)c2OCCO)ccn1 [Compound 567, (2R,3S,4S,5R)-3-(3,4-difluoro-2-(2-hydroxyethoxy)phenyl)-N-(2-(2-methoxyethoxy)pyridin-4-yl)-4,5-dimethyl-5-(trifluoromethyl)tetrahydrofuran-2-carboxamide]	< 10 nM	
COc1c([C@H]2[C@@H](C)[C@@H](C)O[C@@H]2C(=O)Nc2ccnc(C(O)CO)c2)ccc(F)c1F (relative stereo) [Compound 719, rel-(2S,3R,4R,5R)-3-(3,4-difluoro-2-methoxyphenyl)-N-(2-(1,2-dihydroxyethyl)pyridin-4-yl)-4,5-dimethyltetrahydrofuran-2-carboxamide]		≥ 1000 nM
